Data reported in ChEMBL document CHEMBL1148536, “Safrole oxide induces apoptosis by activating caspase-3, -8, and -9 in A549 human lung cancer cells” (Bioorg Med Chem Lett, 2006).
Calls of active or inactive are those of the source. The rule behind the calls is not given here.

Assays:
Assay type in all cases: functional, cell-based
Caspase-8 (Homo sapiens) = Caspase-8 (Homo sapiens) (UniProt Q14790); test: Effect on caspase 8 activation to initiate apoptosis in A549 human lung cancer cell line
A549 [1] = test: Effect on caspase 3 activation to initiate apoptosis in A549 human lung cancer cell line
A549 [2] = test: Effect on caspase 9 activation to initiate apoptosis in A549 human lung cancer cell line

Chain of Caspase-8 (Homo sapiens) (Q14790 217-374 limits assumed): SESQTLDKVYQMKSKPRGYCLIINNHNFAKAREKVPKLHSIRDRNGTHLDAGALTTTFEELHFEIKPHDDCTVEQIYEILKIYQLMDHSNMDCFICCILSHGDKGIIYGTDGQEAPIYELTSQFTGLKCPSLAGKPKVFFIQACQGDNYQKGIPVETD
Chain of Caspase-8 (Homo sapiens) (Q14790 385-479 limits assumed): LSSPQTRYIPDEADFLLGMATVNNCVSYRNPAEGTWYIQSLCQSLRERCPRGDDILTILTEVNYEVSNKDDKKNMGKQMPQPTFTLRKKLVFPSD

- Activity (Caspase-8 (Homo sapiens)): Active
SMILES: c1cc2c(cc1CC1CO1)OCO2 (stereo not drawn)
- Activity (A549 [1]): Active
- Activity (A549 [2]): Active
